{"source": "patent US20250043299A1", "about": "“POINT MUTATIONS THAT BOOST AROMATIC AMINO ACID PRODUCTION AND CO2 ASSIMILATION IN PLANTS” (Wisconsin Alumni Research Foundation, priority 2021, published 2025)", "key": {"DHS1^B4": {"molecular_target": "T1, DHS1^B4 (Arabidopsis thaliana, UniProt P29976, G244R)", "T1 construct": "without the predicted plastid transit peptide (amino acid residues; 49-525, 34-507, and 52-527, respectively); made in house; host or cells: E. coli", "T1 sequence (P29976 49-525 G244R)": "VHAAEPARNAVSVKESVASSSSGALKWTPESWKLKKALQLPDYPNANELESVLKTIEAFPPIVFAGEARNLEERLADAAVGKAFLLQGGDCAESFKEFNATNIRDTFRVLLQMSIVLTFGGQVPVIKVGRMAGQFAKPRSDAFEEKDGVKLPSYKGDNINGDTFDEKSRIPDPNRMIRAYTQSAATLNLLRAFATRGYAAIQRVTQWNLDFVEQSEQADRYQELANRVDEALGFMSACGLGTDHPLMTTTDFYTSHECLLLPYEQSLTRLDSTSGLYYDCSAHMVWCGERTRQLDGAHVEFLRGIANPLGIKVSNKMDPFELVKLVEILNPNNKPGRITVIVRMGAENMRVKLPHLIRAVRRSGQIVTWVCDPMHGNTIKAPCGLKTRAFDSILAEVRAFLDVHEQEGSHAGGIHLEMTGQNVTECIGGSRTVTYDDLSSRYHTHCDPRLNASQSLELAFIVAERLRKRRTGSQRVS", "assay": "DHS enzyme assay, recombinant DHS1^B4", "assay_type": "biochemical", "description": "(§1) To generate recombinant DHS proteins the pET28a vectors carrying the A. thaliana DHS1 (AtDHS1), AtDHS2, or AtDHS3 WT sequence without the predicted plastid transit peptide (amino acid residues; 49-525, 34-507, and 52-527, respectively) were expressed in E. coli Rosetta-2 cells and purified using Ni-affinity chromatography, exactly as was conducted previously (9). To generate DHS proteins with individual sota mutations via site-directed mutagenesis, these pET28a plasmid templates were diluted by 500-fold, mixed with 0.04 U/μL Phusion DNA polymerase (Thermo Scientific), 0.2 mM deoxynucleoside triphosphates (dNTPs), 1× Phusion reaction buffer (Thermo Scientific), and 0.5 μM forward and reverse mutagenesis primers (Table 10). The PCR reaction was run using the following protocol: 98° C. for 30 s followed by 20 cycles of 10 s at 98° C., 20 s at 70° C., 4.5 min at 72° C. with a final extension at 72° C. for 10 min. The PCR products were purified using a QIAquick Gel Extraction Kit (QIAGEN), treated with FastDigest DpnI (Thermo Scientific) to digest methylated plasmid template DNA for 20 min at 37° C., and transformed into E. coli cells. The mutagenized pET28a plasmids were sequenced to confirm that no errors were introduced during the mutagenesis process.\n(§2) The DHS enzyme assays were conducted using the colorimetric method that we recently described (9). Briefly, the enzyme solution (7.7 μl) containing 50 mM Hepes (pH 7.4) was preincubated with an effector molecule(s) at room temperature for 15 min. For assays using recombinant protein and enzyme fractions isolated from plant leaves, 0.01 to 0.1 μg and approximately 50 μg of proteins were used, respectively. After adding 0.5 μl of 0.1 M dithiothreitol, the samples were further incubated at room temperature for 15 min. During these incubations, the substrate solution containing 50 mM Hepes (pH 7.4), 2 mM MnCl2, 4 mM E4P, and 4 mM PEP at final concentration was preheated at 37° C. The enzyme reaction was started by adding 6.8 μl of the substrate solution, then incubated at 37° C. for 30 min, and terminated by adding 30 μl of 0.6 M trichloroacetic acid. After a brief centrifugation, 5 μl of 200 mM NaIO4 (sodium meta-periodate) in 9 N H3PO4 was added to oxidize the enzymatic product and to incubate at 25° C. for 20 min. To stop the oxidation reaction, 20 μl of 0.75 M NaAsO2 (sodium arsenite), which was dissolved in 0.5 M Na2SO4 and 0.05 M H2SO4, was added and immediately mixed. After 5 min of incubation at room temperature, one-third of the sample solution was transferred to a new tube to be mixed with 50 μl of 40 mM thiobarbituric acid and incubated at 99° C. for 15 min in a thermal cycler. The mixture was added to 600 μl of cyclohexanone in eight-strip solvent-resistant plastic tubes, mixed vigorously, and centrifuged at 4500 g for 3 min to separate water- and cyclohexanone-based layers for the extraction off the developed pink chromophore. The absorbance of the pink supernatant was read at 549 nm with the microplate reader (Infinite 200 PRO, TECAN) to calculate DAHP production with the molar extinction coefficient at 549 nm (ε=549 nm) of 4.5×10^4 M^−1 cm^−1. Reaction mixtures with boiled enzymes were run in parallel and used as negative controls to estimate the background signal."}, "DHS2^A4": {"molecular_target": "T2, DHS2^A4 (Arabidopsis thaliana, UniProt Q00218, G222S)", "T2 construct": "without the predicted plastid transit peptide (amino acid residues; 49-525, 34-507, and 52-527, respectively); made in house; host or cells: E. coli", "T2 sequence (Q00218 34-507 G222S)": "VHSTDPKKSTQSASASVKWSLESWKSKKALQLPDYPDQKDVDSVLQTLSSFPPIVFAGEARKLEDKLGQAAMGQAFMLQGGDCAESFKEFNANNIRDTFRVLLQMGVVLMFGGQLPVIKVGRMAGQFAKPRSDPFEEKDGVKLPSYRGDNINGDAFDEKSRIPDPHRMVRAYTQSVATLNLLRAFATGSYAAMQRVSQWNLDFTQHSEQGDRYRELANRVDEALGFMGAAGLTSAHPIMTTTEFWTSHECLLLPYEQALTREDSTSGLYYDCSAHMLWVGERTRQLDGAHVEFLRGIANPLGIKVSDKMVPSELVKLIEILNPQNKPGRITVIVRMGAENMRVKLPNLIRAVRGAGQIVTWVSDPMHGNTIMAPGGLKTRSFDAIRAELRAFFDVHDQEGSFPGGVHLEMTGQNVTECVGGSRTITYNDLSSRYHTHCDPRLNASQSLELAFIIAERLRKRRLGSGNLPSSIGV", "assay_type": "biochemical", "description": "as §1, §2"}, "[1]": {"molecular_target": "T3, Arabidopsis thaliana DHS1 (SEQ ID NO:1) variant DHS1^B4 (sotaB4), G244R (Arabidopsis thaliana, UniProt P29976, G244R)", "T3 construct": "without the predicted plastid transit peptide (amino acid residues; 49-525, 34-507, and 52-527, respectively); made in house; host or cells: E. coli", "T3 sequence (P29976 49-525 G244R)": "as the sequence (P29976 49-525 G244R) above", "assay": "DHS enzyme assay with effector, DHS1 sotaB4", "assay_type": "biochemical", "description": "as §1, §2"}, "[2]": {"molecular_target": "T4, Arabidopsis thaliana DHS2 (SEQ ID NO:2) variant DHS2^A4 (sotaA4), G222S (Arabidopsis thaliana, UniProt Q00218, G222S)", "T4 construct": "without the predicted plastid transit peptide (amino acid residues; 49-525, 34-507, and 52-527, respectively); made in house; host or cells: E. coli", "T4 sequence (Q00218 34-507 G222S)": "as the sequence (Q00218 34-507 G222S) above", "assay": "biochemical", "assay_type": "biochemical", "description": "as §1, §2"}, "[3]": {"molecular_target": "T5, Arabidopsis thaliana DHS1 (AtDHS1), wild type (DHS1^WT), SEQ ID NO:1 (Arabidopsis thaliana, UniProt P29976)", "T5 construct": "without the predicted plastid transit peptide (amino acid residues; 49-525, 34-507, and 52-527, respectively); made in house; host or cells: E. coli Rosetta-2", "T5 sequence (P29976 49-525)": "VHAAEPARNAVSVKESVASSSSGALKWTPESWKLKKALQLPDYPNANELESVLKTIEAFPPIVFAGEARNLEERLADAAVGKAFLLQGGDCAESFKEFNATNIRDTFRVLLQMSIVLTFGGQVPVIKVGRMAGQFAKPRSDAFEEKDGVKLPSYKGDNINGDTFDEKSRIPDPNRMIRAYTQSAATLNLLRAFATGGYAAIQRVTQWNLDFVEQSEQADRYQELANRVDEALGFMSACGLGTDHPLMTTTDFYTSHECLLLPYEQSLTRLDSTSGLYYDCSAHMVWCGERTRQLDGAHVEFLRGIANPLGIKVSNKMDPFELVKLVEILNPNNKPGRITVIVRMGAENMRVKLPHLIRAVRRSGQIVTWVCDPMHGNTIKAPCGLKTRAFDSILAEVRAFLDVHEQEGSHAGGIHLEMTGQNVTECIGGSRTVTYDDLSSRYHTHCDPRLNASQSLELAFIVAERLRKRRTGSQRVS", "settings": "values for AAAs, chorismate, caffeate from Yokoyama et al., Plant Cell, 2021; cited from earlier work"}, "[4]": {"molecular_target": "T6, Arabidopsis thaliana DHS2 (AtDHS2), wild type (DHS2^WT), SEQ ID NO:2 (Arabidopsis thaliana, UniProt Q00218)", "T6 construct": "without the predicted plastid transit peptide (amino acid residues; 49-525, 34-507, and 52-527, respectively); made in house; host or cells: E. coli Rosetta-2", "T6 sequence (Q00218 34-507)": "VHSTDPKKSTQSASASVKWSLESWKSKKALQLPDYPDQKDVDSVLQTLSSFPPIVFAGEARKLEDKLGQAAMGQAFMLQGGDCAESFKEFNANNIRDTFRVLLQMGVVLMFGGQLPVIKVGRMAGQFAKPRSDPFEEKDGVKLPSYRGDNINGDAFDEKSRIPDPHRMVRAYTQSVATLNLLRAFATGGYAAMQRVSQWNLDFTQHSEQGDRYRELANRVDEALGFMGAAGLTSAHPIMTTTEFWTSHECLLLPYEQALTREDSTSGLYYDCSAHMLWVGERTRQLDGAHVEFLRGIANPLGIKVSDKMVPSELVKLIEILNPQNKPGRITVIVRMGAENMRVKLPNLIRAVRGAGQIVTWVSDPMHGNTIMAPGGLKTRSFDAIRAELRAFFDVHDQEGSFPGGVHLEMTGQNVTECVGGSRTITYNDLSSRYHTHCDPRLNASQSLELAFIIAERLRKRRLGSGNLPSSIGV", "settings": "DHS2^WT; values for AAAs, chorismate, caffeate from Yokoyama et al., Plant Cell, 2021; cited from earlier work"}, "[5]": {"system": "Arabidopsis thaliana DHS^WT isoforms (DHS1, DHS2, DHS3), SEQ ID NO:1-3", "settings": "reference 9; cited from earlier work"}, "plant DHSs": {"system": "plant DHSs", "settings": "prior reports (9); cited from earlier work"}, "DHS1^WT": {"molecular_target": "T7, DHS1^WT (Arabidopsis thaliana, UniProt P29976)", "T7 construct": "without the predicted plastid transit peptide (amino acid residues; 49-525, 34-507, and 52-527, respectively); made in house; host or cells: E. coli Rosetta-2", "T7 sequence (P29976 49-525)": "as the sequence (P29976 49-525) above", "assay": "DHS enzyme assay (colorimetric), recombinant DHS1^WT", "assay_type": "biochemical", "description": "as §1, §2"}, "DHS2^WT": {"molecular_target": "T8, DHS2^WT (Arabidopsis thaliana, UniProt Q00218)", "T8 construct": "without the predicted plastid transit peptide (amino acid residues; 49-525, 34-507, and 52-527, respectively); made in house; host or cells: E. coli Rosetta-2", "T8 sequence (Q00218 34-507)": "as the sequence (Q00218 34-507) above", "assay": "DHS enzyme assay, recombinant DHS2^WT", "assay_type": "biochemical", "settings": "FIG. 2D", "description": "as §1, §2"}, "[6]": {"system": "Arabidopsis Col-0 WT plants", "assay": "Plant growth on media containing ILA or IPA (feeding)", "assay_type": "in vivo, Arabidopsis thaliana", "settings": "IPA <10 μM; ILA 0-1000 μM in media", "source_text": "(A) A structural model of A. thaliana DHS2 (AtDHS2, purple) generated from the P. aeruginosa DHS (PaDHS, white) with Trp (magenta) bound. Residues corresponding to the sota mutations mapped onto the AtDHS2 model are highlighted in yellow. (B) Selected regions of the amino acid sequence alignment of PaDHS and AtDHS enzymes, with the positions of the sota mutations indicated by blue, red, green arrows for AtDHS1, AtDHS2, and AtDHS3, respectively. […] Data are means±SEM (n=3). (D) Screening of AAAs and AAA-derived metabolites as potential inhibitors of DHS1^WT and DHS2^WT. *P≤0.05, **P≤0.01, ***P≤0.001, and ****P≤0.0001 denote significant differences by one-way ANOVA with Dunnett's test against the corresponding “No effector” samples. Data are means±SEM (n=3). The dotted horizontal lines separate four sets of independent experiments. […] Data are means±SEM (n=3). (G) Plant picture (left) and fresh weight measurement (right) of 3-week-old Col-0, sotaB4, and sotaA4 mutants (Col-0 background) on the media containing ILA at 0, 250, 500, or 1000 μM. *P≤0.05 and **P≤0.01 denote significant differences by one-way ANOVA with Dunnett's test against the corresponding Col-0 samples (n=12 to 16 independent plant samples). […]"}, "[7]": {"system": "Nicotiana benthamiana leaves", "assay": "Transient expression of Arabidopsis DHS1 WT and B4 in Nicotiana benthamiana, AAA levels by LC-MS", "assay_type": "in vivo", "settings": "two days after inoculation", "description": "Vectors for plant expression were made as previously described using MoClo modular cloning technology. For transient expression in Nicotiana benthamiana, gene expression of the protein coding sequence (CDS) of DHS1 WT and B4 were driven by a 1987-bp sequence obtained from the upstream region of the ubiquitin 10 gene (At4g05320) from Arabidopsis. In addition, a synthetic hemagglutinin (HA) tag comprising 6 repeats of the sequence […] (SEQ ID NO:75) was added to the C-terminus of the protein for quantification of protein expression using an anti-HA antibody. Vectors containing the promoter, CDS, epitope HA-tag, and a terminator were transformed into Agrobacterium tumefaciens via electroporation.\nPositive transformants were used to perform transient expression in Nicotiana benthamiana. Single colony bacteria were grown in LB media supplemented with kanamycin (100 mg/L) and gentamycin (100 mg/L) at 28° C. with constant agitation at 200 rpm. […] After complete resuspension, bacteria concentration was evaluated by spectrometry using optical density (OD) at 600 nm. […]\nEach inoculated leaf was separated into 4 quadrants, and each quadrant received a different bacteria solution containing a different vector. […] Samples for metabolite analysis were collected two days after inoculation and processed as previously described for quantification of aromatic amino acids."}}, "note": "Read-outs that look alike come from different tables or passages of the source."}
{"compound": "C=C(O[C@@H]1C=C(C(=O)O)C=C[C@H]1O)C(=O)O", "note": "[Chorismate]", "values": [{"measurement": "inhibition of DHS1^B4 activity", "setting": "DHS1^B4", "result": "still strongly inhibited"}, {"measurement": "IC50", "setting": "DHS1^B4; recombinant enzyme, read-out: IC50 of effector molecule on DHS1^B4", "result": 25.3, "unit": "µM"}, {"measurement": "inhibition of DHS2^A4 activity", "setting": "DHS2^A4; effector up to 1 mM", "result": "still inhibited"}, {"measurement": "IC50", "setting": "DHS2^A4; recombinant enzyme, read-out: IC50 of effector molecule on DHS2^A4", "result": 102, "unit": "µM"}, {"measurement": "IC50", "setting": "[1]", "result": 25.3, "unit": "µM"}, {"measurement": "inhibition of DHS1^B4", "setting": "[1]; FIG. 19", "result": "still strongly inhibited"}, {"measurement": "IC50", "setting": "[2]", "result": 101, "unit": "µM"}, {"measurement": "inhibition of DHS2^A4", "setting": "[2]; up to 1 mM Tyr, Trp (FIG. 2C), shikimate, arogenate, prephenate at 1 mM (FIG. 21A)", "result": "still inhibited"}, {"measurement": "IC50", "setting": "[3]", "result": 14.6, "unit": "µM"}, {"measurement": "IC50", "setting": "[4]", "result": 81, "unit": "µM"}, {"measurement": "inhibition of all Arabidopsis DHS isoforms", "setting": "[5]", "result": "strongly inhibit all Arabidopsis DHS isoforms"}]}
{"compound": "O=C[C@H](O)[C@H](O)COP(=O)(O)O", "note": "[E4P, erythrose-4-phosphate]", "values": [{"measurement": "Km for E4P", "setting": "plant DHSs", "result": "high"}]}
{"compound": "O=C(O)C(O)Cc1c[nH]c2ccccc12", "note": "(stereo not drawn) [ILA, Indole-3-lactate]", "values": [{"measurement": "effect on DHS1 activity (effector screening)", "setting": "DHS1^WT; FIG. 2D", "result": "reduced the activity"}, {"measurement": "IC50", "setting": "DHS1^WT; recombinant enzyme, read-out: IC50 of effector molecule on DHS1^WT", "result": 210, "unit": "µM"}, {"measurement": "effect on DHS2 activity (effector screening)", "setting": "DHS2^WT", "result": "reduced the activity"}, {"measurement": "IC50", "setting": "[1]; DHS1^B4, 4 mM E4P, 4 mM PEP, pH 7.4, 37° C.", "result": 2880, "unit": "µM"}, {"measurement": "effect of feeding on plant growth", "setting": "[6]", "result": "growth inhibition"}]}
{"compound": "Arabidopsis DHS1 sotaB4 mutant: Arabidopsis DHS1 enzyme with the sotaB4 mutation (G244R)", "values": [{"measurement": "production of tyrosine and phenylalanine in the tobacco plant", "setting": "[7]", "result": "significantly elevated production"}]}
